Measured values from PubChem BioAssay (NCI).
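Assay format: 96-well plates, 48-hour exposure. The concentration for full growth arrest is given as TGI.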

Key:
Assay in all cases: NCI anticancer screen, dose series, 48 h
HS 578T breast = system: HS 578T breast
COLO 205 colon = system: COLO 205 colon
HCT-15 colon = system: HCT-15 colon
OVCAR-8 ovarian = system: OVCAR-8 ovarian
NCI-H522 lung = system: NCI-H522 lung
M14 melanoma = system: M14 melanoma
MCF7 breast = system: MCF7 breast
CAKI-1 renal = system: CAKI-1 renal
MALME-3M melanoma = system: MALME-3M melanoma
SF-268 CNS = system: SF-268 CNS
OVCAR-3 ovarian = system: OVCAR-3 ovarian
HOP-92 NSCLC = system: HOP-92 NSCLC
SK-OV-3 ovarian = system: SK-OV-3 ovarian
OVCAR-5 ovarian = system: OVCAR-5 ovarian
IGROV1 ovarian = system: IGROV1 ovarian
LOX IMVI melanoma = system: LOX IMVI melanoma
BT-549 breast = system: BT-549 breast
DU-145 prostate = system: DU-145 prostate
UACC-62 melanoma = system: UACC-62 melanoma
MOLT-4 leukemia = system: MOLT-4 leukemia
HCT-116 colon = system: HCT-116 colon
NCI-H23 lung = system: NCI-H23 lung
HOP-62 NSCLC = system: HOP-62 NSCLC
NCI/ADR-RES ovarian = system: NCI/ADR-RES ovarian
SK-MEL-2 melanoma = system: SK-MEL-2 melanoma
SW-620 colon = system: SW-620 colon
MDA-MB-435 = system: MDA-MB-435
HL-60(TB) leukemia = system: HL-60(TB) leukemia
SNB-75 CNS = system: SNB-75 CNS
SF-539 CNS = system: SF-539 CNS
U251 CNS = system: U251 CNS
ACHN renal = system: ACHN renal
KM12 colon = system: KM12 colon
HT29 colon = system: HT29 colon
SF-295 CNS = system: SF-295 CNS
NCI-H226 lung = system: NCI-H226 lung
T-47D breast = system: T-47D breast
MDA-N = system: MDA-N
RPMI-8226 leukemia = system: RPMI-8226 leukemia
NCI-H460 lung = system: NCI-H460 lung
CCRF-CEM leukemia = system: CCRF-CEM leukemia
SNB-19 CNS = system: SNB-19 CNS
OVCAR-4 ovarian = system: OVCAR-4 ovarian
786-0 renal = system: 786-0 renal
TK-10 renal = system: TK-10 renal
SR leukemia = system: SR leukemia
PC-3 prostate = system: PC-3 prostate
UO-31 renal = system: UO-31 renal
EKVX NSCLC = system: EKVX NSCLC
SK-MEL-28 melanoma = system: SK-MEL-28 melanoma
UACC-257 melanoma = system: UACC-257 melanoma
A549 NSCLC = system: A549 NSCLC
RXF 393 renal = system: RXF 393 renal
K-562 leukemia = system: K-562 leukemia
MDA-MB-231 breast = system: MDA-MB-231 breast
HCC-2998 colon = system: HCC-2998 colon
SN12C renal = system: SN12C renal
SK-MEL-5 melanoma = system: SK-MEL-5 melanoma
A498 renal = system: A498 renal

Cc1ccc(NCCN(C)C)c2c(=O)c3cc(O)ccc3oc12
TGI (HS 578T breast): 19.9 µM | TGI (COLO 205 colon): 24.2 µM | TGI (HCT-15 colon): 21.2 µM | TGI (OVCAR-8 ovarian): 19.7 µM | TGI (NCI-H522 lung): 21.7 µM | TGI (M14 melanoma): 25.3 µM | TGI (MCF7 breast): 19.6 µM | TGI (CAKI-1 renal): 22.9 µM | TGI (MALME-3M melanoma): 27.3 µM | TGI (SF-268 CNS): 17.7 µM | TGI (OVCAR-3 ovarian): 30.8 µM | TGI (HOP-92 NSCLC): 23.4 µM | TGI (SK-OV-3 ovarian): 26.4 µM | TGI (OVCAR-5 ovarian): 29.1 µM | TGI (IGROV1 ovarian): 24.9 µM | TGI (LOX IMVI melanoma): 22.2 µM | TGI (BT-549 breast): 30.6 µM | TGI (DU-145 prostate): 28.3 µM | TGI (UACC-62 melanoma): 23 µM | TGI (MOLT-4 leukemia): 11.7 µM | TGI (HCT-116 colon): 17.2 µM | TGI (NCI-H23 lung): 25.6 µM | TGI (HOP-62 NSCLC): 23.3 µM | TGI (NCI/ADR-RES ovarian): 24.3 µM | TGI (SK-MEL-2 melanoma): 35.4 µM | TGI (SW-620 colon): 17 µM | TGI (MDA-MB-435): 24.4 µM | TGI (HL-60(TB) leukemia): 19.4 µM | TGI (SNB-75 CNS): 16 µM | TGI (SF-539 CNS): 20.5 µM | TGI (U251 CNS): 21 µM | TGI (ACHN renal): 17.6 µM | TGI (KM12 colon): 25 µM | TGI (HT29 colon): 23.7 µM | TGI (SF-295 CNS): 23 µM | TGI (NCI-H226 lung): 29.5 µM | TGI (T-47D breast): 31.5 µM | TGI (MDA-N): 23 µM | TGI (RPMI-8226 leukemia): 34.3 µM | TGI (NCI-H460 lung): 15 µM | TGI (CCRF-CEM leukemia): 16 µM | TGI (SNB-19 CNS): 23.7 µM | TGI (OVCAR-4 ovarian): 31.3 µM | TGI (786-0 renal): 18.3 µM | TGI (TK-10 renal): 27.9 µM | TGI (SR leukemia): 3.35 µM | TGI (PC-3 prostate): 24.2 µM | TGI (UO-31 renal): 22.1 µM | TGI (EKVX NSCLC): 29.2 µM | TGI (SK-MEL-28 melanoma): 28.4 µM | TGI (UACC-257 melanoma): 32.7 µM | TGI (A549 NSCLC): 20.9 µM | TGI (RXF 393 renal): 24.4 µM | TGI (K-562 leukemia): 12.3 µM | TGI (MDA-MB-231 breast): 22.2 µM | TGI (HCC-2998 colon): 24.3 µM | TGI (SN12C renal): 20.2 µM | TGI (SK-MEL-5 melanoma): 24 µM | TGI (A498 renal): 28.2 µM

C=CC[C@@]1(OC(C)=O)C(=O)C(=O)OC1C1COC(C)(C)O1 (stereo partly drawn)
TGI (HS 578T breast): > 100 µM | TGI (COLO 205 colon): 27.2 µM | TGI (HCT-15 colon): 29 µM | TGI (OVCAR-8 ovarian): 41.2 µM | TGI (NCI-H522 lung): 19.6 µM | TGI (M14 melanoma): 35.1 µM | TGI (MCF7 breast): 33.6 µM | TGI (CAKI-1 renal): 4.42 µM | TGI (MALME-3M melanoma): 32 µM | TGI (SF-268 CNS): 39.4 µM | TGI (OVCAR-3 ovarian): 31.5 µM | TGI (HOP-92 NSCLC): 30.4 µM | TGI (SK-OV-3 ovarian): > 100 µM | TGI (OVCAR-5 ovarian): 34.5 µM | TGI (IGROV1 ovarian): 34 µM | TGI (LOX IMVI melanoma): 20 µM | TGI (BT-549 breast): 40 µM | TGI (DU-145 prostate): 53.8 µM | TGI (UACC-62 melanoma): 32.5 µM | TGI (MOLT-4 leukemia): 32.6 µM | TGI (HCT-116 colon): 26.6 µM | TGI (NCI-H23 lung): 40.5 µM | TGI (HOP-62 NSCLC): > 100 µM | TGI (NCI/ADR-RES ovarian): 71.9 µM | TGI (SK-MEL-2 melanoma): 43.5 µM | TGI (SW-620 colon): 26.6 µM | TGI (MDA-MB-435): 30.9 µM | TGI (HL-60(TB) leukemia): 27.2 µM | TGI (SNB-75 CNS): 78.7 µM | TGI (SF-539 CNS): 72.9 µM | TGI (U251 CNS): 31.3 µM | TGI (ACHN renal): 30.2 µM | TGI (KM12 colon): 29.1 µM | TGI (HT29 colon): 36.4 µM | TGI (SF-295 CNS): > 100 µM | TGI (NCI-H226 lung): > 100 µM | TGI (T-47D breast): 37.5 µM | TGI (MDA-N): 33.3 µM | TGI (RPMI-8226 leukemia): 35.5 µM | TGI (NCI-H460 lung): 39.1 µM | TGI (CCRF-CEM leukemia): 22.7 µM | TGI (SNB-19 CNS): > 100 µM | TGI (OVCAR-4 ovarian): 38.7 µM | TGI (786-0 renal): 24.6 µM | TGI (TK-10 renal): 30 µM | TGI (SR leukemia): 37.9 µM | TGI (PC-3 prostate): 40.2 µM | TGI (UO-31 renal): 31.4 µM | TGI (EKVX NSCLC): 33 µM | TGI (SK-MEL-28 melanoma): 33.5 µM | TGI (UACC-257 melanoma): 31.9 µM | TGI (A549 NSCLC): 58.1 µM | TGI (RXF 393 renal): 40.1 µM | TGI (K-562 leukemia): 32.2 µM | TGI (MDA-MB-231 breast): 30.9 µM | TGI (HCC-2998 colon): 40.7 µM | TGI (SN12C renal): 32.5 µM | TGI (SK-MEL-5 melanoma): 30.4 µM | TGI (A498 renal): 49 µM
